One experiment addresses T1, human GLP-1 receptor (Homo sapiens, UniProt P43220).
T1 construct: expressed in transfected cells; host or cells: BHK (parent line BHKTS13), clone BHK CRE luc2P hGLP-1R
The experiment in a line: In vitro functional potency, CRE luciferase reporter gene assay, whole BHK cells expressing hGLP-1R. The class given is cell-based. Conditions: BHK CRE luc2P hGLP-1R cells. How it is done: (§1) The in vitro functional potency is the measure of target receptor activation in a whole cell assay.
(§2) In vitro functional potency was determined by measuring the response of the target receptor in a reporter gene assay in individual cell lines. […] When the respective receptor is activated, it results in the production of cAMP, which in turn results in expression of the luciferase protein. When assay incubation is completed, luciferase substrate (luciferin) is added resulting in the enzymatic conversion of luciferin to oxyluciferin and producing bioluminescence. The luminescence is measured as the readout for the assay.
(§3) The cells lines used in these assays were BHK cells with BHKTS13 as a parent cell line. The cell lines were derived from a clone containing the CRE luciferase element and were established by further transfection with the respective human receptor to obtain the relevant cell line: BHK CRE luc2P hGLP-1R or BHK CRE luc2P hGIPR. The cells were cultured at 37° C. with 5% CO2 in Cell Culture Medium. They were aliquoted and stored in liquid nitrogen. The cells were kept in continuous culture and were seeded out the day before each assay.
(§4) GLP-1R Cell Culture Medium consisted of DMEM medium with 10% FBS, 500 μg/mL G418, and 300 μg/mL hygromycin. GIPR Cell Culture Medium consisted of DMEM medium with 10% FBS, 400 μg/mL G418, and 300 μg/mL hygromycin. Assay Buffer consisted of DMEM w/o phenol red, 10 mM Hepes, 1× Glutamax. 1% ovalbumin, and 0.1% Pluronic F-68 with the addition of HSA at twice the final assay concentration.
(§5) Procedure • 1) Cells were plated at 5000 cells/well and incubated overnight in the assay plate. • 2) Cells were washed once in DPBS. • 3) Stocks of the test compounds and reference compounds in concentrations ranging from […] were diluted 1:150 in Assay Buffer. Compounds were then diluted 1:10 in column 1 of a 96 deep well dilution plate and then carried across the row creating a 3.5 fold, 12 point dilution curve. • 4) Assay Buffer (50 μl aliquot) with or without HSA was added to each well in the assay plate. • 5) A 50 μl aliquot of compound or blank was transferred from the dilution plate to the assay plate containing the Assay Buffer with or without HSA. • 6) The assay plate was incubated for 3 h in a 5% CO2 incubator at 37° C. • 7) The cells were washed once with DPBS. • 8) A 100 μl aliquot of DPBS was added to each well of the assay plate. • 9) A 100 μl aliquot of steadylite plus reagent (light sensitive) was added to each well of the assay plate. • 10) Each assay plate was covered with aluminum foil to protect it from light and shaken at 250 RPM for 30 min at room temperature. • 11) Each assay plate was read in a microtiter plate reader.
(§6) The data from the microtiter plate reader was first regressed in an Excel in order to calculate the x-axis, log scale concentrations based on the individual test compound's stock concentration and the dilutions of the assay. […] The software performs a non-linear regression (log(agonist) vs response). A minimum of two replicates was measured for each sample. The reported values are averages of the replicates.
In general terms: A reporter such as luciferase makes a cellular process visible.

In the next experiment the target is T2, human GIP receptor (Homo sapiens, UniProt P48546).
T2 construct: expressed in transfected cells; host or cells: BHK (parent line BHKTS13), clone BHK CRE luc2P hGIPR
T2 sequence (P48546 22-466): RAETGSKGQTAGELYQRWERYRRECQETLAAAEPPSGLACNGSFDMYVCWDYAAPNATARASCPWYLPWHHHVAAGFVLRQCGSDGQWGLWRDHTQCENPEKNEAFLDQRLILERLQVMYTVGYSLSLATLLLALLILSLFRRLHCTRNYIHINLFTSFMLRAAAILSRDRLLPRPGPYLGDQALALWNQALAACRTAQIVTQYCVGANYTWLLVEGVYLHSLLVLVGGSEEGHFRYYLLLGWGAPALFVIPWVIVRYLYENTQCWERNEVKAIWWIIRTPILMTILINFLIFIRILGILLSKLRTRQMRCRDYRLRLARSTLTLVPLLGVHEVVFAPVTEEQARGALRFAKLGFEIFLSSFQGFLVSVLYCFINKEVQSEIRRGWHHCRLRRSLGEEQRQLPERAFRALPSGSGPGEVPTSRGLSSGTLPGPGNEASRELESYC
The experiment in a line: In vitro functional potency, CRE luciferase reporter gene assay, whole BHK cells expressing hGIPR. Type of experiment: cell-based. To be noted: BHK CRE luc2P hGIPR cells. How it is done: as §1, §2, §3, §4, §5, §6

Setting [1] is: 0% HSA, read-out: hGLP-1R, CRE Luc 0% HSA EC50.
Setting [2] is: hGLP-1R, CRE Luc 1% HSA EC50, 1% HSA.
Where [3] appears, read: 0% HSA, read-out: hGIPR, CRE Luc 0% HSA EC50.
[4] abbreviates: hGIPR, CRE Luc 1% HSA EC50, 1% HSA.

Each structure is given as a SMILES string. Read-outs that look alike come from different tables or passages of the source. Starred links: 1 amine or outer side, 2 acyl side, 3 side chain; linkers in the order of their positions; H or OH if unused. Non-standard residues stand in square brackets, D forms with d. Residues, ends and D or L forms follow the SMILES beside them. Groups on a side chain read outwards from the residue. *: point of attachment. C18 diacid = O=C(O)CCCCCCCCCCCCCCCCC(=O)*; γGlu = O=C(O)[C@H](CCC(=O)[*:2])N[*:1]; εLys = N[C@@H](CCCCN[*:1])C(=O)[*:2]; Aib = CC(C)(N)C(=O)O

T1 sequence (P43220 24-463): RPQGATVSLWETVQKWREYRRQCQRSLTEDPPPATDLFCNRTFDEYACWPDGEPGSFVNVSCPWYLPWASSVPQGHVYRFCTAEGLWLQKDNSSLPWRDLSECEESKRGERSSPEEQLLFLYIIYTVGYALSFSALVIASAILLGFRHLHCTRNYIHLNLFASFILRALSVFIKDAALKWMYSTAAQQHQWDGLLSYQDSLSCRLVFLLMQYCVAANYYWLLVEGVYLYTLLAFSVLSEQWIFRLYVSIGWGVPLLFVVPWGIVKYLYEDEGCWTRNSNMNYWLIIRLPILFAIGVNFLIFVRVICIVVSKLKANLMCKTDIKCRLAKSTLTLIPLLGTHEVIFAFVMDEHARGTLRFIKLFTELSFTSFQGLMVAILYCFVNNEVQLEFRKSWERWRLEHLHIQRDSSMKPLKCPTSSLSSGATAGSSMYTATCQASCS

On to `CC[C@H](C)[C@H](NC(=O)[C@H](CO)NC(=O)[C@H](Cc1ccc(O)cc1)NC(=O)[C@H](CC(=O)O)NC(=O)[C@H](CO)NC(=O)[C@@H](NC(=O)[C@H](Cc1ccccc1)NC(=O)[C@@H](NC(=O)CNC(=O)[C@H](CCC(=O)O)NC(=O)C(C)(C)NC(=O)[C@@H](N)Cc1ccc(O)cc1)[C@@H](C)O)[C@@H](C)O)C(=O)N[C@@H](C)C(=O)N[C@@H](CC(C)C)C(=O)N[C@@H](CCC(=O)O)C(=O)N[C@@H](CCCCNC(=O)[C@@H](N)CCCCNC(=O)[C@@H](N)CCCCNC(=O)CC[C@H](NC(=O)CCCCCCCCCCCCCCCCC(=O)O)C(=O)O)C(=O)N[C@@H](CCC(N)=O)C(=O)N[C@@H](C)C(=O)N[C@@H](C)C(=O)N[C@@H](CCCNC(=N)N)C(=O)N[C@@H](CCC(=O)O)C(=O)N[C@@H](Cc1ccccc1)C(=O)N[C@H](C(=O)N[C@@H](CC(N)=O)C(=O)N[C@@H](Cc1c[nH]c2ccccc12)C(=O)N[C@@H](CC(C)C)C(=O)N[C@@H](CC(C)C)C(=O)N[C@@H](C)C(=O)NCC(=O)NCC(=O)N1CCC[C@H]1C(=O)N[C@@H](CO)C(=O)N[C@@H](CO)C(=O)NCC(=O)N[C@@H](C)C(=O)N1CCC[C@H]1C(=O)N1CCC[C@H]1C(=O)N1CCC[C@H]1C(=O)N[C@@H](CO)C(=O)O)[C@@H](C)CC` [Compound No. 14] (H-Y[Aib]EGTFTSDYSIALEK([εLys-εLys-γGlu-C18 diacid])QAAREFINWLLAGGPSSGAPPPS-OH), for which the EC50 amounted to 0.0054 nM at human GLP-1 receptor (setting [1]), 0.306 nM at human GLP-1 receptor (setting [2]), 0.0116 nM at human GIP receptor (setting [3]) and 0.58 nM on human GIP receptor (setting [4]).
The corresponding values for `CC[C@H](C)[C@H](NC(=O)[C@H](CO)NC(=O)[C@H](Cc1ccc(O)cc1)NC(=O)[C@H](CC(=O)O)NC(=O)[C@H](CO)NC(=O)[C@@H](NC(=O)[C@H](Cc1ccccc1)NC(=O)[C@@H](NC(=O)CNC(=O)[C@H](CCC(=O)O)NC(=O)C(C)(C)NC(=O)[C@@H](N)Cc1ccc(O)cc1)[C@@H](C)O)[C@@H](C)O)C(=O)N[C@@H](Cc1ccc(O)cc1)C(=O)N[C@@H](CC(C)C)C(=O)N[C@@H](CCC(=O)O)C(=O)N[C@@H](CCCCNC(=O)[C@@H](N)CCCCNC(=O)[C@@H](N)CCCCNC(=O)CC[C@H](NC(=O)CCCCCCCCCCCCCCCCC(=O)O)C(=O)O)C(=O)N[C@@H](CCC(N)=O)C(=O)N[C@@H](C)C(=O)N[C@@H](C)C(=O)N[C@@H](CCCNC(=N)N)C(=O)N[C@@H](CCC(=O)O)C(=O)N[C@@H](Cc1ccccc1)C(=O)N[C@H](C(=O)N[C@@H](CC(N)=O)C(=O)N[C@@H](Cc1c[nH]c2ccccc12)C(=O)N[C@@H](CC(C)C)C(=O)N[C@@H](CC(C)C)C(=O)N[C@@H](C)C(=O)NCC(=O)NCC(=O)N1CCC[C@H]1C(=O)N[C@@H](CO)C(=O)N[C@@H](CO)C(=O)NCC(=O)N[C@@H](C)C(=O)N1CCC[C@H]1C(=O)N1CCC[C@H]1C(=O)N1CCC[C@H]1C(=O)N[C@@H](CO)C(N)=O)C(C)C` [Compound No. 6] (H-Y[Aib]EGTFTSDYSIYLEK([εLys-εLys-γGlu-C18 diacid])QAAREFVNWLLAGGPSSGAPPPS-NH2) are 0.0034 nM, 0.243 nM, 0.0185 nM and 0.434 nM.
The corresponding values for `CC(C)C[C@H](NC(=O)[C@H](CC(C)C)NC(=O)[C@H](Cc1c[nH]c2ccccc12)NC(=O)[C@H](CC(N)=O)NC(=O)[C@@H](NC(=O)[C@H](Cc1ccccc1)NC(=O)[C@H](C)NC(=O)[C@H](CCC(N)=O)NC(=O)[C@H](C)NC(=O)[C@H](C)NC(=O)[C@H](CCC(N)=O)NC(=O)[C@H](CCCCNC(=O)[C@@H](N)CCCCNC(=O)[C@@H](N)CCCCNC(=O)CC[C@H](NC(=O)CCCCCCCCCCCCCCCCC(=O)O)C(=O)O)NC(=O)[C@H](CCC(=O)O)NC(=O)[C@H](CC(C)C)NC(=O)[C@H](Cc1ccc(O)cc1)NC(=O)[C@H](Cc1ccc(O)cc1)NC(=O)[C@H](CO)NC(=O)[C@H](Cc1ccc(O)cc1)NC(=O)[C@H](CC(=O)O)NC(=O)[C@H](CO)NC(=O)[C@@H](NC(=O)[C@H](Cc1ccccc1)NC(=O)[C@@H](NC(=O)CNC(=O)[C@H](CCC(=O)O)NC(=O)C(C)(C)NC(=O)[C@@H](N)Cc1ccc(O)cc1)[C@@H](C)O)[C@@H](C)O)C(C)C)C(=O)N[C@@H](C)C(=O)NCC(=O)NCC(=O)N1CCC[C@H]1C(=O)N[C@@H](CO)C(=O)N[C@@H](CO)C(=O)NCC(=O)N[C@@H](C)C(=O)N1CCC[C@H]1C(=O)N1CCC[C@H]1C(=O)N1CCC[C@H]1C(=O)N[C@@H](CO)C(=O)O` [Compound No. 5] (H-Y[Aib]EGTFTSDYSYYLEK([εLys-εLys-γGlu-C18 diacid])QAAQAFVNWLLAGGPSSGAPPPS-OH; N-terminus assumed) are 0.0094 nM, 0.625 nM, 0.0142 nM and 0.362 nM.
Turning to `CC[C@H](C)[C@H](NC(=O)[C@H](Cc1ccccc1)NC(=O)[C@H](CCC(=O)O)NC(=O)[C@H](CCCNC(=N)N)NC(=O)[C@H](C)NC(=O)[C@H](C)NC(=O)[C@H](CCC(N)=O)NC(=O)[C@H](CCCCNC(=O)[C@@H](N)CCCCNC(=O)[C@@H](N)CCCCNC(=O)CC[C@H](NC(=O)CCCCCCCCCCCCCCCCC(=O)O)C(=O)O)NC(=O)[C@H](CCC(=O)O)NC(=O)[C@H](CC(C)C)NC(=O)[C@H](Cc1ccc(O)cc1)NC(=O)[C@@H](NC(=O)[C@H](CO)NC(=O)[C@H](Cc1ccc(O)cc1)NC(=O)[C@H](CC(=O)O)NC(=O)[C@H](CO)NC(=O)[C@@H](NC(=O)[C@H](Cc1ccccc1)NC(=O)[C@@H](NC(=O)CNC(=O)[C@H](CCC(=O)O)NC(=O)C(C)(C)NC(=O)[C@@H](N)Cc1ccc(O)cc1)[C@@H](C)O)[C@@H](C)O)[C@@H](C)CC)C(=O)N[C@@H](CCC(=O)O)C(=O)N[C@@H](Cc1c[nH]c2ccccc12)C(=O)N[C@@H](CC(C)C)C(=O)N[C@@H](CC(C)C)C(=O)N[C@@H](CCCNC(=N)N)C(=O)NCC(=O)NCC(=O)N1CCC[C@H]1C(=O)N[C@@H](CO)C(=O)N[C@@H](CO)C(=O)NCC(=O)N[C@@H](C)C(=O)N1CCC[C@H]1C(=O)N1CCC[C@H]1C(=O)N1CCC[C@H]1C(=O)N[C@@H](CO)C(=O)O` [Compound No. 12] (H-Y[Aib]EGTFTSDYSIYLEK([εLys-εLys-γGlu-C18 diacid])QAAREFIEWLLRGGPSSGAPPPS-OH; N-terminus assumed), the EC50 at human GLP-1 receptor (setting [1]) was 0.004 nM; at human GLP-1 receptor (setting [2]), 0.0544 nM; on human GIP receptor (setting [3]), 0.009 nM; at human GIP receptor (setting [4]), 0.0715 nM.

By EC50 is commonly meant the concentration at which the effect is half-maximal.

The values above are taken from patent publication US20230120597A1, “CO-AGONISTS AT GLP-1 AND GIP RECEPTORS SUITABLE FOR ORAL DELIVERY” (Novo Nordisk A/S, priority 2020, published 2023).
